# Experimental data: patent publication US20060003030A1, “Essential oils for treating and/ or preventing allergic disease” (priority 2004, published 2006)
# Assays:
# [1] = tested on: PAF-induced platelet aggregation; test: Inhibitory activity of essential oils on PAF-induced platelet aggregation; type: cell-based, New Zealand rabbit; conditions: rabbit washed platelet suspension, PAF added 2 min after sample, aggregation observed 4 min
# Method: The anticoagulant “acid-citrate-dextrose” (ACD) was added to the blood taken from a New Zealand rabbit in a ratio of 1:6 by volume. The resulting blood was centrifuged at 190 g for 15 min at room temperature. After centrifugation, the supernatant containing platelet-rich plasma (PRP) was taken and 0.2 M EDTA was added. The resulting supernatant was centrifuged at 1000 g for 1.5 min. After centrifugation, the pellet containing RBC and WBC was removed and then PRP was centrifuged at 1000 g for 11 min. After centrifugation, the supernatant was removed and the platelet pellet was suspended in Ca^2+--free Tyrode's buffer (containing 1 mM Ca2+). […] The turbidity was determined with a Platelet Aggregation Chromogenic Kinetic System.
# 0.5 ml of platelet suspension was added to silicon-coated cuvette and put in a Platelet Aggregation Chromogenic Kinetic System and bathed for 2 min at 37° C. […] The ratio of aggregation was calculated by the following formula: Ratio of aggregation %=(absorptivity before adding PAF−absorptivity after adding PAF/(absorptivity before adding PAF−absorptivity of Tyrode's buffer)×100% The ratio of inhibition was calculated by the following formula: Ratio of inhibition %=100%−(ratio of aggregation of sample/ratio of aggregation of control×100%)
# [2] = tested on: mouse macrophage cell line RAW 264.7; test: Inhibitory effect of essential oils on NO production by LPS-activated mouse macrophage cell line (Griess reagent); type: cell-based; conditions: positive control, concentration not given; LPS (Inducer) 60 ± 0.5, Blank 3.5 ± 0.3
# Method: The mouse macrophage cell line RAW 264.7 was purchased from Bioresources Collection & Research Center, Taiwan and numbered CCRC 60001. The cells were added to Dulbecco's Modified Eagle Medium (DMEM, GibcoBRL) containing 10% (v/v) fetal bovine serum (FBS, GibcoBRL) and then incubated in a CO2 incubator containing 5% CO2 at 37° C. The cells grow to 90% density and are then washed with phosphate buffered saline (PBS). The cells were colleted and diluted with fresh DMEM to the appropriate concentration.
# The mouse macrophage cells were transferred in a 96-well plate in a concentration of 10,000 cells/well. After incubating for 24 hours, the cells were activated with the medium containing 100 μg/ml Lipopolysaccharide (LPS, SIGMA) and 100·μg/ml Interferon-γ (INF-γ, GibcoBRL). Meanwhile, the essential oils of herbal medicine in different concentrations were added to the wells. After incubating for 24 hours, 50 μl of supernatants were respectively taken and put into a 96-well plate. […] Then, the absorbance of the resulting cell supernatants was determined with a microplate reader at a wavelength of […]. The percentage of nitric oxide can be calculated by the following formula: % nitric oxide=(sample absorptivity/control absorptivity)×100%.
smiles,measurement,setting,value
CCCCCCCCCCCCCCCCCCNC(=O)OCC(COP(=O)([O-])OCC[n+]1ccsc1)OC (centres unmarked) [CV-3988],IC50,[1],1420 µg/mL
CNC(=N)NCCC[C@H](N)C(=O)O [L-NMMA],Nitric oxide,[2],25 ± 0.6 µM
